Results taken from paper PMC5218480 (PLoS ONE, 2017).

Tested on: MV-4-11 cells
Assay: Gene expression microarray analysis (Affymetrix PrimeView) and GSEA
Assay type: cell-based, human
Parameters: RFU PODN (11730768_x_at) / Fold change /veh PODN (11730768_x_at) / RFU LINC00158 (11744669_a_at) / Fold change /veh LINC00158 (11744669_a_at) / RFU DUSP10 (11751237_a_at) / Fold change /veh DUSP10 (11751237_a_at) / RFU ID3 (11757404_x_at) / Fold change /veh ID3 (11757404_x_at) / RFU PLEKHG5 (11737974_s_at) / Fold change /veh PLEKHG5 (11737974_s_at) / RFU LRRC4B (11730491_at) / Fold change /veh LRRC4B (11730491_at) / RFU GIMAP4 (11747438_a_at) / Fold change /veh GIMAP4 (11747438_a_at) / RFU KRT8 (11758183_x_at) / Fold change /veh KRT8 (11758183_x_at) / RFU CNN1 (11734310_a_at) / Fold change /veh CNN1 (11734310_a_at) / RFU VPS37D (11726825_at) / Fold change /veh VPS37D (11726825_at) / RFU C10orf10 (11716522_x_at) / Fold change /veh C10orf10 (11716522_x_at) / RFU KIR2DL2 /// KIR2DL4 /// KIR2DL5A /// KIR2DL5B /// KIR2DS1 /// KIR2DS2 /// KIR2DS3 /// KIR2DS4 /// KIR3DL3 /// KIR3DL3 /// KIR3DS1 (11738374_at) / Fold change /veh KIR2DL2 /// KIR2DL4 /// KIR2DL5A /// KIR2DL5B /// KIR2DS1 /// KIR2DS2 /// KIR2DS3 /// KIR2DS4 /// KIR3DL3 /// KIR3DL3 /// KIR3DS1 (11738374_at) / RFU C1QL1 (11718748_at) / Fold change /veh C1QL1 (11718748_at) / RFU TMPRSS4 (11747572_a_at) / Fold change /veh TMPRSS4 (11747572_a_at) / RFU HAMP (11756126_x_at) / Fold change /veh HAMP (11756126_x_at) / RFU RNFT2 (11725882_a_at) / Fold change /veh RNFT2 (11725882_a_at) / RFU NR4A2 (11747474_a_at) / Fold change /veh NR4A2 (11747474_a_at) / RFU ABCC12 (11746883_a_at) / Fold change /veh ABCC12 (11746883_a_at) / RFU TMEM136 (11760407_x_at) / Fold change /veh TMEM136 (11760407_x_at) / RFU CLDN22 /// WWC2 (11732394_at) / Fold change /veh CLDN22 /// WWC2 (11732394_at) / RFU HLA-DPB1 (11760878_x_at) / Fold change /veh HLA-DPB1 (11760878_x_at) / RFU SPINT1 (11716480_a_at) / Fold change /veh SPINT1 (11716480_a_at) / RFU GAP43 (11754022_s_at) / Fold change /veh GAP43 (11754022_s_at) / RFU A4GNT (11735810_at) / Fold change /veh A4GNT (11735810_at) / RFU PRB3 (11715151_x_at) / Fold change /veh PRB3 (11715151_x_at) / RFU TUBB4B (11761932_at) / Fold change /veh TUBB4B (11761932_at) / RFU CAPN14 (11732068_a_at) / Fold change /veh CAPN14 (11732068_a_at) / RFU TMCC2 (11721928_a_at) / Fold change /veh TMCC2 (11721928_a_at) / RFU IRGQ (11745062_a_at) / Fold change /veh IRGQ (11745062_a_at) / RFU FAM174B (11720279_a_at) / Fold change /veh FAM174B (11720279_a_at) / RFU TMPRSS4 (11748680_a_at) / Fold change /veh TMPRSS4 (11748680_a_at) / RFU FAM212B (11763350_a_at) / Fold change /veh FAM212B (11763350_a_at) / RFU PLEKHG5 (11743358_a_at) / Fold change /veh PLEKHG5 (11743358_a_at) / RFU ZSCAN30 (11745921_a_at) / Fold change /veh ZSCAN30 (11745921_a_at) / RFU CMKLR1 (11741424_a_at) / Fold change /veh CMKLR1 (11741424_a_at) / RFU LOC101060620 /// MAPK8IP1 (11723275_at) / Fold change /veh LOC101060620 /// MAPK8IP1 (11723275_at) / RFU SPTSSB (11747773_x_at) / Fold change /veh SPTSSB (11747773_x_at) / RFU PRSS12 (11739890_at) / Fold change /veh PRSS12 (11739890_at) / RFU BIN1 (11741810_x_at) / Fold change /veh BIN1 (11741810_x_at) / RFU WNT11 (11732464_a_at) / Fold change /veh WNT11 (11732464_a_at) / RFU C10orf10 (11716521_a_at) / Fold change /veh C10orf10 (11716521_a_at) / RFU C5orf56 (11738089_at) / Fold change /veh C5orf56 (11738089_at) / RFU CYB561 (11721691_x_at) / Fold change /veh CYB561 (11721691_x_at) / RFU ANKRD19P (11752326_a_at) / Fold change /veh ANKRD19P (11752326_a_at) / RFU OR2T12 /// OR2T33 /// OR2T8 (11738714_s_at) / Fold change /veh OR2T12 /// OR2T33 /// OR2T8 (11738714_s_at) / RFU VCAN (11748164_a_at) / Fold change /veh VCAN (11748164_a_at) / RFU JSRP1 (11732532_at) / Fold change /veh JSRP1 (11732532_at) / RFU KRTAP10-11 (11738290_x_at) / Fold change /veh KRTAP10-11 (11738290_x_at) / RFU MYO3A (11730013_a_at) / Fold change /veh MYO3A (11730013_a_at) / RFU EBF3 (11725865_a_at) / Fold change /veh EBF3 (11725865_a_at) / RFU CAMK2N1 (11719241_x_at) / Fold change /veh CAMK2N1 (11719241_x_at) / RFU C5orf56 (11738088_a_at) / Fold change /veh C5orf56 (11738088_a_at) / RFU OLFML3 (11715873_a_at) / Fold change /veh OLFML3 (11715873_a_at) / RFU LOC100653217 /// NTM (11731650_a_at) / Fold change /veh LOC100653217 /// NTM (11731650_a_at) / RFU MAPK11 (11762145_a_at) / Fold change /veh MAPK11 (11762145_a_at) / RFU FIZ1 (11724087_x_at) / Fold change /veh FIZ1 (11724087_x_at) / RFU OASL (11726364_x_at) / Fold change /veh OASL (11726364_x_at) / RFU SOX15 (11748057_x_at) / Fold change /veh SOX15 (11748057_x_at) / RFU CD79A (11719716_a_at) / Fold change /veh CD79A (11719716_a_at) / RFU HIST1H1D (11736915_at) / Fold change /veh HIST1H1D (11736915_at) / RFU CASKIN2 (11723855_a_at) / Fold change /veh CASKIN2 (11723855_a_at) / RFU LOC730098 (11760151_x_at) / Fold change /veh LOC730098 (11760151_x_at) / RFU OR4N2 (11742367_at) / Fold change /veh OR4N2 (11742367_at) / RFU PRRT2 (11749266_a_at) / Fold change /veh PRRT2 (11749266_a_at) / RFU SNX32 (11753110_a_at) / Fold change /veh SNX32 (11753110_a_at) / RFU CDHR5 (11726645_a_at) / Fold change /veh CDHR5 (11726645_a_at) / RFU RCAN1 (11760418_a_at) / Fold change /veh RCAN1 (11760418_a_at) / RFU FAM167A (11723789_a_at) / Fold change /veh FAM167A (11723789_a_at) / RFU FAM26E (11764081_at) / Fold change /veh FAM26E (11764081_at) / RFU ISYNA1 (11749810_s_at) / Fold change /veh ISYNA1 (11749810_s_at) / RFU ACY1 (11761880_at) / Fold change /veh ACY1 (11761880_at) / RFU 11764098_at / Fold change /veh 11764098_at / RFU SAMD14 (11745864_x_at) / Fold change /veh SAMD14 (11745864_x_at) / RFU NPB (11741838_a_at) / Fold change /veh NPB (11741838_a_at) / RFU TMPRSS6 (11731388_a_at) / Fold change /veh TMPRSS6 (11731388_a_at) / RFU KRTAP10-2 (11738614_at) / Fold change /veh KRTAP10-2 (11738614_at) / RFU ARHGAP8 /// PRR5-ARHGAP8 (11727945_x_at) / Fold change /veh ARHGAP8 /// PRR5-ARHGAP8 (11727945_x_at) / RFU KRTAP5-7 /// NADSYN1 (11734609_at) / Fold change /veh KRTAP5-7 /// NADSYN1 (11734609_at) / RFU RASL12 (11751679_a_at) / Fold change /veh RASL12 (11751679_a_at) / RFU CDKN2B (11736163_a_at) / Fold change /veh CDKN2B (11736163_a_at) / RFU PRF1 (11729649_at) / Fold change /veh PRF1 (11729649_at) / RFU, ZNF638 /// ZNF638-IT1 / Fold change vs veh, ZNF638 /// ZNF638-IT1 / RFU, PANK3 / Fold change vs veh, PANK3 / RFU, SH3YL1 / Fold change vs veh, SH3YL1 / RFU, ZEB2 / Fold change vs veh, ZEB2 / RFU, NRIP1 / Fold change vs veh, NRIP1 / RFU, PTTG1IP / Fold change vs veh, PTTG1IP / RFU, CAPN2 / Fold change vs veh, CAPN2 / RFU, MED14 / Fold change vs veh, MED14 / RFU, SNORA58 / Fold change vs veh, SNORA58 / RFU, C1orf63 / Fold change vs veh, C1orf63 / RFU, LRRFIP1 / Fold change vs veh, LRRFIP1 / RFU, NDUFAF7 / Fold change vs veh, NDUFAF7 / RFU, SLC12A2 / Fold change vs veh, SLC12A2 / RFU, IBTK / Fold change vs veh, IBTK / RFU, ESF1 / Fold change vs veh, ESF1 / Fold change vs veh, TMEM50B / RFU, TAOK1 / Fold change vs veh, TAOK1 / RFU, ACBD3 / Fold change vs veh, ACBD3 / RFU, TMA16 / Fold change vs veh, TMA16 / RFU, RWDD3 / Fold change vs veh, RWDD3 / RFU, BCAT1 / Fold change vs veh, BCAT1 / RFU, EDEM3 / Fold change vs veh, EDEM3 / RFU, TMEM33 / Fold change vs veh, TMEM33 / RFU, WDR75 / Fold change vs veh, WDR75 / RFU, AHCTF1 / Fold change vs veh, AHCTF1 / RFU, TFRC / Fold change vs veh, TFRC / RFU, ZDHHC17 / Fold change vs veh, ZDHHC17 / RFU, NOM1 / Fold change vs veh, NOM1 / RFU, ARL8B / Fold change vs veh, ARL8B / RFU, ZBTB11 / Fold change vs veh, ZBTB11 / RFU, TAMM41 / Fold change vs veh, TAMM41 / RFU, KIAA1704 /// LOC100996395 / Fold change vs veh, KIAA1704 /// LOC100996395 / RFU, ING1 / Fold change vs veh, ING1 / RFU, TRMT61B / Fold change vs veh, TRMT61B / RFU, FUBP3 / Fold change vs veh, FUBP3 / RFU, TP53 / Fold change vs veh, TP53 / RFU, TNKS2 / Fold change vs veh, TNKS2 / RFU, ZFP14 / Fold change vs veh, ZFP14 / RFU, ACTR2 / Fold change vs veh, ACTR2 / RFU, PPP3R1 / Fold change vs veh, PPP3R1 / RFU, PIK3R1 / Fold change vs veh, PIK3R1 / RFU, HNRNPA1 / Fold change vs veh, HNRNPA1 / RFU, RNF170 / Fold change vs veh, RNF170 / RFU, ZNF28 / Fold change vs veh, ZNF28 / RFU, RNGTT / Fold change vs veh, RNGTT / RFU, OGT / Fold change vs veh, OGT / RFU, BRD1 / Fold change vs veh, BRD1 / RFU, MARS / Fold change vs veh, MARS / RFU, ZNF655 / Fold change vs veh, ZNF655 / RFU, FAHD1 / Fold change vs veh, FAHD1 / RFU, BDP1 / Fold change vs veh, BDP1 / RFU, LRRCC1 / Fold change vs veh, LRRCC1 / RFU, ARID1A / Fold change vs veh, ARID1A / RFU, ZNF146 / Fold change vs veh, ZNF146 / RFU, ZNF330 / Fold change vs veh, ZNF330 / RFU, GPN3 / Fold change vs veh, GPN3 / RFU, C9orf123 / Fold change vs veh, C9orf123 / RFU, N4BP2L2 / Fold change vs veh, N4BP2L2 / RFU, ARFIP1 / Fold change vs veh, ARFIP1 / RFU, FAM179B / Fold change vs veh, FAM179B / RFU, BCL10 / Fold change vs veh, BCL10 / RFU, UHRF1BP1L / Fold change vs veh, UHRF1BP1L / RFU, BET1 / Fold change vs veh, BET1 / RFU, CNOT2 / Fold change vs veh, CNOT2 / RFU, ZNF268 / Fold change vs veh, ZNF268 / Fold change vs veh, ZNF507 / RFU, DGCR2 / Fold change vs veh, DGCR2 / RFU, WDSUB1 / Fold change vs veh, WDSUB1 / Fold change vs veh, HSP90B1 /// MIR3652 / RFU, ADSS / Fold change vs veh, ADSS / RFU, GK / Fold change vs veh, GK / RFU, ZNF148 / Fold change vs veh, ZNF148 / RFU, TAF9 / Fold change vs veh, TAF9 / RFU, SLC1A5 / Fold change vs veh, SLC1A5 / RFU, SLMO2 / Fold change vs veh, SLMO2 / RFU, ABCC4 / Fold change vs veh, ABCC4 / RFU, LOC101060439 /// RAP1B / Fold change vs veh, LOC101060439 /// RAP1B / RFU, RFX7 / Fold change vs veh, RFX7 / RFU, GTPBP10 / Fold change vs veh, GTPBP10 / RFU, CNEP1R1 / Fold change vs veh, CNEP1R1 / RFU, BIVM-ERCC5 /// ERCC5 / Fold change vs veh, BIVM-ERCC5 /// ERCC5 / RFU, ILF3 / Fold change vs veh, ILF3 / RFU 11762660_at / Fold change /veh 11762660_at / RFU VCAN (11757783_s_at) / Fold change /veh VCAN (11757783_s_at) / RFU DDX43 (11728927_at) / Fold change /veh DDX43 (11728927_at) / RFU KRT8 (11758188_x_at) / Fold change /veh KRT8 (11758188_x_at) / RFU NKD1 (11759106_at) / Fold change /veh NKD1 (11759106_at) / RFU SRD5A1 (11742802_a_at) / Fold change /veh SRD5A1 (11742802_a_at) / RFU TPSAB1 /// TPSB2 (11721975_s_at) / Fold change /veh TPSAB1 /// TPSB2 (11721975_s_at) / RFU GSTM3 (11746129_a_at) / Fold change /veh GSTM3 (11746129_a_at) / RFU IL23R (11737362_x_at) / Fold change /veh IL23R (11737362_x_at) / RFU TMEM51 (11727254_a_at) / Fold change /veh TMEM51 (11727254_a_at) / RFU PIWIL2 (11732686_x_at) / Fold change /veh PIWIL2 (11732686_x_at) / RFU ORM1 (11744905_x_at) / Fold change /veh ORM1 (11744905_x_at) / RFU CCDC152 (11743942_at) / Fold change /veh CCDC152 (11743942_at) / RFU ECM1 (11717891_a_at) / Fold change /veh ECM1 (11717891_a_at) / RFU IL23R (11748794_a_at) / Fold change /veh IL23R (11748794_a_at) / RFU TNFAIP8L3 (11732012_x_at) / Fold change /veh TNFAIP8L3 (11732012_x_at) / RFU MBOAT4 (11741988_at) / Fold change /veh MBOAT4 (11741988_at) / RFU 11764193_at / Fold change /veh 11764193_at / RFU TMEM53 (11763286_at) / Fold change /veh TMEM53 (11763286_at) / RFU MAGEB2 (11727129_at) / Fold change /veh MAGEB2 (11727129_at) / RFU TMEM200A (11744735_a_at) / Fold change /veh TMEM200A (11744735_a_at) / RFU CCDC152 (11751479_a_at) / Fold change /veh CCDC152 (11751479_a_at) / RFU FAM211A (11726209_a_at) / Fold change /veh FAM211A (11726209_a_at) / RFU RGS16 (11746705_a_at) / Fold change /veh RGS16 (11746705_a_at) / RFU VCAN (11755009_s_at) / Fold change /veh VCAN (11755009_s_at) / RFU RHOB (11743442_s_at) / Fold change /veh RHOB (11743442_s_at) / RFU RGS16 (11720943_a_at) / Fold change /veh RGS16 (11720943_a_at) / RFU RGS16 (11720944_at) / Fold change /veh RGS16 (11720944_at) / RFU, VPS4B / Fold change vs veh, VPS4B / RFU, CREB1 / Fold change vs veh, CREB1 / RFU, DNAJC13 / Fold change vs veh, DNAJC13 / RFU, GNAQ / Fold change vs veh, GNAQ / RFU, CDK5R1 / Fold change vs veh, CDK5R1 / RFU, ZRANB3 / Fold change vs veh, ZRANB3 / RFU, CUL4A / Fold change vs veh, CUL4A / RFU, CCNY / Fold change vs veh, CCNY / RFU, UFL1 / Fold change vs veh, UFL1 / RFU, COG3 / Fold change vs veh, COG3 / RFU, DIAPH2 / Fold change vs veh, DIAPH2 / RFU, SKA2 / Fold change vs veh, SKA2 / RFU, AFF3 / Fold change vs veh, AFF3 / RFU, LMF1 / Fold change vs veh, LMF1 / RFU, IPO11 / Fold change vs veh, IPO11 / RFU, DFFB / Fold change vs veh, DFFB / RFU, FOXP1 / Fold change vs veh, FOXP1 / RFU, CARD8 / Fold change vs veh, CARD8 / RFU, STRN3 / Fold change vs veh, STRN3 / RFU, ADK / Fold change vs veh, ADK / RFU, RASSF2 / Fold change vs veh, RASSF2 / RFU, WIPF1 / Fold change vs veh, WIPF1 / RFU, LARP1B / Fold change vs veh, LARP1B / RFU, RASA1 / Fold change vs veh, RASA1 / RFU, RB1 / Fold change vs veh, RB1 / RFU, PPFIA1 / Fold change vs veh, PPFIA1 / RFU, MAT2A / Fold change vs veh, MAT2A / RFU, CCT5 / Fold change vs veh, CCT5 / RFU, WDR92 / Fold change vs veh, WDR92 / RFU, CUX1 / Fold change vs veh, CUX1 / RFU, TTC7A / Fold change vs veh, TTC7A / RFU, TMEM135 / Fold change vs veh, TMEM135 / RFU, DEPTOR / Fold change vs veh, DEPTOR / RFU, CPM / Fold change vs veh, CPM / RFU, DNAJB6 / Fold change vs veh, DNAJB6 / RFU, CACNA2D3 / Fold change vs veh, CACNA2D3 / RFU, DTX4 / Fold change vs veh, DTX4 / RFU, TFCP2 / Fold change vs veh, TFCP2 / RFU, GMCL1 /// GMCL1P1 / Fold change vs veh, GMCL1 /// GMCL1P1 / RFU, AEBP2 / Fold change vs veh, AEBP2 / RFU, SNHG1 /// SNORD22 /// SNORD25 /// SNORD26 /// SNORD27 /// SNORD28 /// SNORD29 /// SNORD31 / Fold change vs veh, SNHG1 /// SNORD22 /// SNORD25 /// SNORD26 /// SNORD27 /// SNORD28 /// SNORD29 /// SNORD31 / Fold change (Aza/veh), C12orf56 (ProbeSet 11735607_a_at) / Fold change (ACY-1035/veh), C12orf56 (ProbeSet 11735607_a_at) / Fold change (Aza/veh), FGFR1OP (ProbeSet 11751329_s_at) / Fold change (ACY-1035/veh), FGFR1OP (ProbeSet 11751329_s_at) / Fold change (Aza/veh), VPS36 (ProbeSet 11739960_a_at) / Fold change (ACY-1035/veh), VPS36 (ProbeSet 11739960_a_at) / RFU SYPL1 (11715823_x_at) / Fold change /veh SYPL1 (11715823_x_at) / RFU IGFBP7 (11715501_s_at) / Fold change /veh IGFBP7 (11715501_s_at) / RFU REEP3 (11722064_at) / Fold change /veh REEP3 (11722064_at) / RFU IGLL1 (11728026_x_at) / Fold change /veh IGLL1 (11728026_x_at): dose or concentration left out as unconfirmed
Settings: ProbeSet 11723141_at; LIST B

Nc1ccc(-c2cccs2)cc1NC(=O)c1ccc2c(c1)cc(C1CC1)n2CCN1CCOCC1 [ACY-1035]
Fold change vs veh, ZBTB11: 0.84
